Reference: patent US20200115667A1, “VASCULARIZED MICROFLUIDIC PLATFORMS” (BOARD OF REGENTS, THE UNIVERSITY OF TEXAS SYSTEM, priority 2017, published 2020)
Where two headings read alike, the source gives them in different places.

Columns and labels:
[1] = tested on: TIME monoculture endothelium; assay: Porosity of vasculature (vessel confluence, confocal); format: cell-based, human; details: 20 ng/ml perfused 24 hours
Procedure: After embedding cells in collagen and successfully preconditioning endothelialized channels for 72 hours to establish a confluent, aligned endothelium, the effect of different co-culture conditions on the vessel confluence was studied as shown in FIG. 20.
To create a fully functional aligned endothelium along each channel within each compartment, TIME cell suspension in media (10×10^6 cells/ml) was introduced in the channel and underwent flow preconditioning for 3 days. Within the first 36 hours, wall shear stress was maintained at 0.01 dyn/cm^2 and followed with a linear increase of wall shear stress to 0.1 dyn/cm^2 for 1 hour and maintained at this value for the next 36 hours. […] For positive control samples, 20 ng/ml Tumor Necrosis Factor Alpha (TNFα, RnD Systems, MN) was perfused at 0.1 dyn/cm^2 for 24 hours after the preconditioning protocol before transport studies. To provide flow into the microfluidic platform, 0.5″ long 22G stainless steel needles were inserted though PDMS ports and partially into the collagen microchannels. Autoclaved Tygon silicon tubing ( 1/16″ ID, Saint Global, France) was connected to the inlet needle and a bubble trap, which is connected to a syringe pump that controls the flow rate. […]
Therefore, endothelial porosity was determined using fluorescence microscopy images of mKate tagged endothelial cells.

[2] = tested on: endothelial lumen of C3Asub28/TIME, MDA-MB-231/TIME, THLE-3/TIME microenvironments; assay: Vessel permeability of multi tissue-on-a-chip microenvironments; format: cell-based, human; details: TNFα treated TIME monoculture vs TIME monoculture, this study
Procedure: Transport measurements of varying particle sizes in the multi tissue-on-a-chip microenvironment were conducted for two different scenarios: single microenvironment analysis and microenvironments connected in series to investigate the influence of their interactions and interdependent transport kinetics. When considering only a single microenvironment transport, particles were delivered through the vessel of the microenvironment of interest and transport through the vessel and into the surrounding ECM was measured subsequently and spatially. In these tests, 5 different platform configurations was used: acellular with no cells in the ECM and no cells in the vessel, TIME monoculture consisting only endothelial cells lining the vessel without cells in the ECM, and then vascularized microenvironments denoted as cells in the ECM/cells in the vessel: MDA-MB-231/TIME, C3Asub28/TIME, and THLE-3/TIME microenvironments. […]
Therefore, endothelial porosity was determined using fluorescence microscopy images of mKate tagged endothelial cells. […] The effect of vessel and ECM porosities and particle size on transport were quantified using two methods, permeability coefficient and intensity profiles of the particles in the vessel and ECM. […] Obtained images were exported to Matlab to quantify intensity readings at each time step. For the first method, permeability coefficient was calculated using Equation 8

[3] = tested on: endothelial lumen of C3Asub28/TIME, MDA-MB-231/TIME, THLE-3/TIME microenvironments; details: reported by Zervantonakis et al.; cited from earlier work

**Q.** Which “effect on vessel compared to Control −” value [1] does the source give for Tumor Necrosis Factor Alpha [TNFα] here?
**A.** caused vessel permeabilization with significant pore openings

**Q.** And the “fold change of permeability between Control − and Control +” value [2]?
**A.** 1.59±0.13

**Q.** What about the “fold change of permeability between Control − and Control +” value [3] of the same substance?
**A.** 1.79±0.27
